In patent US5340833A, “Urokinase inhibitors” (Eisai Co., Ltd., priority 1992, dated 1994):
Where “and” joins values, the source holds several entries; their conditions need not be identical. Equal values may be shown once. Where a name gives a salt, the structure may show the parent alone.

Tests used:
Type in all cases: biochemical
urokinase = molecular target: T1, urokinase (Homo sapiens, UniProt P00749); assay: Urokinase Indirect (Plasminogen-Linked) Assay; conditions: Table 3 column 4, simple number, unit inferred; read-out: uPA Indirect (plasminogen-linked) IC50
T1 construct: human high molecular weight urokinase; purchased American Diagnostica, Greenwich, Conn
Procedure: (ii) An indirect plasminogen-linked assay in which urokinase proteolytically activates plasminogen, forming plasmin which then cleaves a synthetic tripeptide pNA plasmin substrate.
Incubations were carried out at 22° C. for 45-60 minutes or until adequate color developed. Color qas quantitated as in the urokinase direct assay above. Parallel incubations were performed with and without plasminogen, and corrected absorbance values were obtained by subtracting values obtained without plasminogen from those obtained with plasminogen, eliminating any contribution of direct cleavage, if any, of plasmin substrate by urokinase.

human two-chain tPA = molecular target: T2, human two-chain tPA (Homo sapiens, UniProt P00750); assay: tPA Indirect (Plasminogen-Linked) Assay (tPA Direct Assay result where lower); conditions: for tPA/UPA ratio: ratio with respect to urokinase indirect plasminogen-linked IC50, larger = greater specificity for urokinase; for IC50: tPA Indirect Plasminogen-Linked Assay, in rare cases direct assay result if lower, read-out: tPA IC50
T2 construct: human two-chain tPA was substituted for urokinase; purchased American Diagnostica
Description: (iv) Both direct and plasminogen-linked pNA assays for tPA, the other mammalian plasminogen activator and the key initiator of blood clot dissolution or fibrinolysis. Since urokinase and tPA share an absolute specificity for the same peptide bond in plasminogen, urokinase inhibitors designed to block cellular invasiveness must be highly specific for urokinase over tPA in order to avoid serious thrombotic side effects secondary to undesired blockage of normal fibrinolysis. […] Spectrozyme tPA®, American Diagnostica) was substituted for urokinase substrate.

human plasmin = molecular target: T3, human plasmin (Homo sapiens, UniProt P00747); assay: Plasmin Assay; conditions: for PLM/uPA ratio: ratio with respect to urokinase indirect plasminogen-linked IC50, larger = greater specificity for urokinase; for IC50: read-out: PLASMIN IC50
T3 construct: plasmin, the potent general protease produced by cleavage of plasminogen by either urokinase or tPA; purchased American Diagnostica
Procedure: (v) A chromogenic pNA assay for plasmin, the potent general protease produced by cleavage of plasminogen by either urokinase or tPA. Although urokinase initiates cellular invasiveness by generating plasmin, the additional importance of plasmin in tPA-mediated fibrinolysis dictates that plasmin itself should be free from inhibition by urokinase inhibitors designed as anti-invasiveness agents. […] All other assay conditions, as well as methods of color quantitation, were carried out as described above for the urokinase direct assay.

T3 sequence (P00747 581-810 limits assumed): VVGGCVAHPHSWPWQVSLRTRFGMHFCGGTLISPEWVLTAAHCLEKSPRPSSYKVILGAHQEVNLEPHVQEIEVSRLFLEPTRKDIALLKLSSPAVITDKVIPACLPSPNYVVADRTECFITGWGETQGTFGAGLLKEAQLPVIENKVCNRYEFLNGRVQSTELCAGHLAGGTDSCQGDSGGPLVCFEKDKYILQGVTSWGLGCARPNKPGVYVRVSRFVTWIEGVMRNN
T3 sequence (P00747 97-580 limits assumed): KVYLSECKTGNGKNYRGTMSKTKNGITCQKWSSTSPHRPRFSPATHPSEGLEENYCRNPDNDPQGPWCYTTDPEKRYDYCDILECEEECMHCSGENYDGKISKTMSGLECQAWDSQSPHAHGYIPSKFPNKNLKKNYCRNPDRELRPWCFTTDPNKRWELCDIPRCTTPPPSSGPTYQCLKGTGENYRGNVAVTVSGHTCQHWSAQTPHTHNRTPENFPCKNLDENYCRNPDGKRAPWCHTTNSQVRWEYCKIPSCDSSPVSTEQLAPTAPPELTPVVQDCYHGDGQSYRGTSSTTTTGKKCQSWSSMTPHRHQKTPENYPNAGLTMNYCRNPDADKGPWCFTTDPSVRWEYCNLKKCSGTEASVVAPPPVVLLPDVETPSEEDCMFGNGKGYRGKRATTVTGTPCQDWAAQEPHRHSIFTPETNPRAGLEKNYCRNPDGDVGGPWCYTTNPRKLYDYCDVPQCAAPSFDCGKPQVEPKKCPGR
T2 sequence (P00750 311-562 limits assumed): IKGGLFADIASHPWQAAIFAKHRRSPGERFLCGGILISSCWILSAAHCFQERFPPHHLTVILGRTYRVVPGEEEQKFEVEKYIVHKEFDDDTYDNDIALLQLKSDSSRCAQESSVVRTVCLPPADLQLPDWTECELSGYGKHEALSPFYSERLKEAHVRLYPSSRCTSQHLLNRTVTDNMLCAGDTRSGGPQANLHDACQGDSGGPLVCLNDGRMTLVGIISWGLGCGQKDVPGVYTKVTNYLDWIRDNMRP
T2 sequence (P00750 36-310 limits assumed): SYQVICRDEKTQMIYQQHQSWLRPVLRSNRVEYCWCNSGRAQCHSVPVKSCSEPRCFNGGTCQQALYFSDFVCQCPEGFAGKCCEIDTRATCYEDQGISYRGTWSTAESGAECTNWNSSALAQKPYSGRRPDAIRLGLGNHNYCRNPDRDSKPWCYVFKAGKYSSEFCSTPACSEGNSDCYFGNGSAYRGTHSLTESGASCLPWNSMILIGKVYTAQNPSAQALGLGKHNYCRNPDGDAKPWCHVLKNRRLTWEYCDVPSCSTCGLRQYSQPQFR

| SMILES | IC50 (urokinase) | tPA/UPA ratio (human two-chain tPA) | IC50 (human two-chain tPA) | PLM/uPA ratio (human plasmin) | IC50 (human plasmin) | inhibition at 1000 µM (human plasmin; read-out: PLASMIN activity observed relative to inhibitor-free controls) |
| --- | --- | --- | --- | --- | --- | --- |
| CCCc1cccc2sc(C(=N)N)cc12.Cl [Compound 9, 4-Propylbenzo[b]thiophene-2-carboxamidine hydrochloride] | 0.66 µM | 250 | 165 µM | 902 | 595 µM |  |
| CCCCc1cccc2sc(C(=N)N)cc12.Cl [Compound 10, 4-Butylbenzo[b]thiophene-2-carboxamidine hydrochloride] | 0.42 µM | 352 | 148 µM | 907 | 381 µM |  |
| CC(C)CCc1cccc2sc(C(=N)N)cc12.Cl [Compound 12, 4-(3-Methylbutyl)benzo[b]thiophene-2-carboxamidine hydrochloride] | 0.34 µM | 279 | 95 µM | 847 | 288 µM |  |
| CCCCCCc1cccc2sc(C(=N)N)cc12.Cl [Compound 13, 4-(Hexyl)benzo[b]thiophene-2-carboxamidine hydrochloride] | 0.42 µM | 214 | 90 µM | 464 | 195 µM |  |
| C=Cc1cccc2sc(C(=N)N)cc12.Cl [Compound 17, 4-Ethenylbenzo[b]thiophene-2-carboxamidine hydrochloride] | 1.4 µM | 6.3 | 8.6 µM | 42 | 57 µM |  |
| C=CCc1cccc2sc(C(=N)N)cc12.Cl [Compound 19, 4-(Prop-2-enyl)benzo[b] thiophene-2-carboxamidine hydrochloride] | 0.45 µM | 127 | 57 µM | 1120 | 505 µM |  |
| CC(C)/C=C/c1cccc2sc(C(=N)N)cc12.Cl [Compound 23, 4-(E-3-Methylbut-1-enyl)benzo[b]thiophene-2-carboxamidine hydrochloride] | 0.13 µM | 315 | 41 µM | 4838 | 629 µM |  |
| CCC/C=C/c1cccc2sc(C(=N)N)cc12.Cl [Compound 25, 4-(E-Pent-1-enyl)benzo[b]thiophene-2-carboxamidine hydrochloride] | 0.14 µM | 343 | 48 µM | 1471 | 206 µM |  |
| CCCCC=Cc1cccc2sc(C(=N)N)cc12 [Compound 29, 4-(E/Z-Hex-1-enyl)benzo[b]thiophene-2-carboxamidine hydrochloride] | 0.34 µM | 250 | 85 µM | 718 | 244 µM |  |
| C#Cc1cccc2sc(C(=N)N)cc12.Cl [Compound 39, 4-Ethynylbenzo[b]thiophene-2-carboxamidine hydrochloride] | 0.66 µM | 436 | 288 µM | 661 | 704 µM |  |
| Cl.N=C(N)c1cc2c(-c3ccccc3)cccc2s1 [Compound 44, 4-Phenylbenzo[b]thiophene-2-carboxamidine hydrochloride] | 1.1 µM | 58 | 64 µM | 800 | 881 µM |  |
| Cl.Cl.N=C(N)c1cc2c(-c3cccnc3)cccc2s1 [Compound 48, 4-(Pyrid-3-yl)benzo[b]thiophene-2-carboxamidine bis-hydrochloride] | 0.56 µM | 152 | 85 µM | 609 | 341 µM |  |
| Cl.N=C(N)c1cc2c(-c3ccco3)cccc2s1 [Compound 49, 4-(Furan-2-yl)benzo[b]thiophene-2-carboxamidine hydrochloride] | 0.36 µM | 53 | 19 µM | 1000 | 360 µM |  |
| Cl.N=C(N)c1cc2c(-c3cccs3)cccc2s1 [Compound 50, 4-(Thien-2-yl)benzo[b]thiophene-2-carboxamidine hydrochloride] | 0.5 µM | 56 | 28 µM | 762 | 381 µM |  |
| Cl.N=C(N)c1cc2c(-c3cc4ccccc4o3)cccc2s1 [Compound 51, 4-(Benzo[b]furan-2-yl)benzo[b]thiophene-2-carboxamidine hydrochloride] | 0.56 µM | 200 | 112 µM | 1330 | 745 µM |  |
| N=C(N)c1ccc(-c2ccc(-c3cccc4sc(C(=N)N)cc34)o2)cc1 [Compound 53, 4-[5-(4-carboxamidinophenyl)fur-2-yl]benzo[b]thiophene-2-carboxamidine bis-hydrochloride] | 0.092 µM | 45 | 4.1 µM | 511 | 47 µM |  |
| Cl.N=C(N)c1cc2c(CO)cccc2s1 [Compound 56, 4-(Hydroxymethyl)benzo[b]thiophene-2-carboxamidine hydrochloride] | 0.88 µM | 640 | 563 µM | ≥ 1500 |  | 67% |
| CSc1cccc2sc(C(=N)N)cc12.Cl [Compound 58, 4-(Methylthio)benzo[b]thiophene-2-carboxamidine hydrochloride] | 0.56 µM | 413 | 231 µM | 954 | 534 µM |  |
| N=C(N)c1cc2c(C=Cc3ccccc3)cccc2s1 [Compound 63, 4-(E/Z-2-Phenylethenyl)benzo[b]thiophene-2-carboxamidine hydrochloride] | 0.14 µM | 86 | 12 µM | 1250 | 175 µM |  |
| N=C(N)c1cc2c(C=Cc3ccc4c(c3)OCCO4)cccc2s1 [Compound 66, 4-[E/Z,2-(Benzo-1,4-dioxan-6-yl)ethenyl]benzo[b]thiophene-2-carboxamidine hydrochloride] | 0.12 µM and 0.038 µM | 395 | 15 µM | 4580 | 174 µM |  |
| Cl.N=C(N)c1cc2c(/C=C/c3ccco3)cccc2s1 [Compound 67, 4-[E-2-(Furan-2-yl)ethenyl]benzo[b]thiophene-2-carboxamidine hydrochloride] | 0.195 µM | 133 | 26 µM | 1000 | 195 µM |  |
| N=C(N)c1cc2c(/C=C/c3cccc4sc(C(=N)N)cc34)cccc2s1 [Compound 73, 4-[E-2-(2-Carboxamidinobenzothien-4-yl)ethenyl]benzo[b]thiophene-2-carboxamidine bis-hydrochloride] | 0.17 µM | 15.9 | 2.7 µM | 147 | 25 µM |  |
| Cl.N=C(N)c1cc2c(C#Cc3ccco3)cccc2s1 [Compound 75, 4-[(Furan-2-yl)ethynyl]benzo[b]thiophene-2-carboxamidine hydrochloride] | 0.17 µM | 194 | 33 µM | 1694 | 288 µM |  |
